{"source": "paper PMC6885504", "about": "(American Journal of Cardiovascular Drugs, 2019)", "key": {"[1]": {"tested_on": "CYP3A4", "conditions": "cited from earlier work"}, "[2]": {"experiment": "Safety assessments", "type": "in vivo, human", "conditions": "for safety and tolerability: apixaban 10 mg alone and in combination with clarithromycin IR 500 mg bid, healthy adults"}, "[3]": {"type": "in vivo, human"}, "[4]": {"conditions": "cited from earlier work"}, "[5]": {"conditions": "cited from earlier work", "remark": "listed apart in the source"}, "[6]": {"conditions": "during treatment with the agent alone, of 19 subjects"}, "[7]": {"conditions": "coadministered with multiple doses of clarithromycin vs apixaban alone"}, "[8]": {"conditions": "whole study (apixaban alone, clarithromycin alone, both together)"}}, "note": "Entries after “also recorded” stand apart in the source; their conditions may differ. Read-outs that look alike come from different tables or passages of the source.", "data": [{"smiles": "CC(=O)N1CCN(c2ccc(OCC3COC(Cn4ccnc4)(c4ccc(Cl)cc4Cl)O3)cc2)CC1", "note": "(stereo not shown) [ketoconazole]", "values": [{"measurement": "increase in AUC of midazolam", "setting": "[1]; ketoconazole as inhibitor", "result": "420–1500%"}]}, {"smiles": "CC[C@H]1OC(=O)[C@H](C)[C@@H](O[C@H]2C[C@@](C)(OC)[C@@H](O)[C@H](C)O2)[C@H](C)[C@@H](O[C@@H]2O[C@H](C)C[C@H](N(C)C)[C@H]2O)[C@](C)(OC)C[C@@H](C)C(=O)[C@H](C)[C@@H](O)[C@]1(C)O", "note": "[clarithromycin]", "values": [{"measurement": "subjects reporting at least one AE", "setting": "[2]; [6]", "result": 42.1, "unit": "%"}, {"measurement": "subjects with AEs considered related to study drug", "setting": "[2]; [6]", "result": 26.3, "unit": "%"}, {"measurement": "increase in AUC of midazolam", "setting": "[1]; clarithromycin as inhibitor", "result": "260–860%"}]}, {"smiles": "COc1ccc(-n2nc(C(N)=O)c3c2C(=O)N(c2ccc(N4CCCCC4=O)cc2)CC3)cc1", "note": "[Apixaban]", "values": [{"measurement": "increase in apixaban AUC(0–T)", "setting": "[3]; [7]", "result": 60, "unit": "%"}, {"measurement": "increase in apixaban AUC(INF)", "setting": "[3]; [7]", "result": 60, "unit": "%"}, {"measurement": "increase in apixaban Cmax", "setting": "[3]; [7]", "result": 30, "unit": "%"}, {"measurement": "time at which apixaban reached maximum concentration after dosing", "setting": "[3]; concentration–time profiles day 1 and day 8 (Fig. 2)", "result": 3, "unit": "h"}, {"measurement": "safety and tolerability", "setting": "[2]", "result": "Apixaban 10 mg alone and in combination with twice-daily clarithromycin immediate release 500 mg was safe and generally well-tolerated by healthy adult volunteers."}, {"measurement": "safety and tolerability", "setting": "[2]; listed as apixaban", "result": "safe and generally well-tolerated"}, {"measurement": "subjects experiencing additional AEs", "setting": "[2]; apixaban and clarithromycin together, of 18 subjects", "result": 22.2, "unit": "%"}, {"measurement": "subjects reporting at least one AE", "setting": "[2]; [6]", "result": 5.3, "unit": "%"}, {"measurement": "bleeding-related AEs, deaths, serious AEs", "setting": "[2]; [8]", "result": "no bleeding-related AEs, deaths, or serious AEs"}, {"measurement": "intensity of adverse events", "setting": "[2]; [8]", "result": "mild"}, {"measurement": "half-life", "setting": "[4]", "result": 12, "unit": "h"}, {"measurement": "oral bioavailability", "setting": "[4]", "result": "~50", "unit": "%"}, {"measurement": "renal clearance as share of total systemic clearance", "setting": "[4]", "result": "~27", "unit": "%"}, {"measurement": "change in apixaban exposure", "setting": "[5]; coadministered with ketoconazole vs apixaban alone", "result": "approximately doubled; also recorded: twofold"}, {"measurement": "decrease in apixaban exposure", "setting": "[5]; coadministered with rifampin vs apixaban alone", "result": 50, "unit": "%"}]}]}
